Tests used:
[1] = Absorption and fluorescence properties in water; assay type: physicochemical; conditions: for λem: λex 360 nm for compound 5, 385 nm for compounds 7 and 10
Experimental: All chemicals and solvents were purchased from commercial suppliers and used without further purification unless otherwise specified. Prior to use, N,N-dimethylformamide was stored over molecular sieves (4 Å), while toluene and dichloromethane were dried over anhydrous sodium sulfate. All reactions were performed in oven dried flasks under argon atmosphere with magnetic stirring. Reaction progress was monitored by TLC analysis on Macherey-Nagel™ ALUGRAM® Xtra SIL G/UV254 plates. TLC plates were visualized with UV light (wavelengths 254 and 365 nm) or iodine vapour. Compounds were purified by flash chromatography in a glass column (stationary phase - silicagel, high-purity grade 9385, pore size 60 Å, particle size - 230-400 mesh, supplier Sigma-Aldrich). ^1H and ^13C NMR spectra were recorded at room temperature on a Bruker Avance III 700 spectrometer (700 MHz for ^1H and 176 MHz for ^13C) in CDCl3 as solvent. FT-IR spectra were collected using ATR method on a Bruker Vertex 70v spectrometer with an integrated Platinum ATR accessory. The melting points of crystalline compounds were determined in open capillary tubes with a Buchi M-565 apparatus (temperature gradient - 2 °C/min) and are uncorrected. High-resolution mass spectrometry (HRMS) spectra were obtained in ESI mode on a Bruker MicrOTOF-Q III spectrometer. UV-Vis absorption and fluorescence spectra were registered on an Infinity M200 Pro Tecan microplate reader.
Fluorescence properties of final compounds 5, 7 and 10 were investigated in water. The excitation wavelength λex was set to 360 nm for compound 5 and to 385 nm for compounds 7 and 10. The emission maxima λem of all three compounds are located in the 475-525 nm range, which corresponds to the blue part of the visible light spectrum.
On the other hand, as expected an additional double bond in compound 10, compared to compound 7, caused both a bathochromic shift of the emission maxima. […] Table 2. Absorption and fluorescence characteristics of compounds 5, 7 and 10 in water.

[2] = system: G361 cell line; test: MTT cell viability assay without irradiation (dark viability); assay type: cell-based, human; conditions: G361, treated 24 h, no irradiation; viability similar to untreated cells
Experimental: G361 cell line (human skin melanoma) was cultivated in DMEM medium supplemented with 10% fetal bovine serum, 1% penicillin/streptomycin, 1% glutamine, at 37 °C in 5% CO2 atmosphere. Viability of cells was determined using the MTT (Sigma-Aldrich) assay in 96-well microplates (10^4 per well in 100 µl of DMEM). The test compounds were added 24 h post plating and the cells were then incubated for additional 24 h. Cells were then exposed to an irradiation in 100 µl of PBS with 5 mM glucose and incubated for further 24 h. After the experiment, 50 µl of MTT (dissolved in PBS) was added and cells were incubated for another 3 h at 37 °C and in 5 % CO2. The media was then carefully replaced with 100 µl of DMSO in order to solubilize the violet formazan crystals. The measurement of absorbance was carried out on reader Synergy HT at 570 nm and 690 nm. The cell viability of the samples was determined as a percentage of the control cell viability (100 × average of test group / average of control group). The data for the determination of EC50 was calculated using the Phototox v. 2.0 software (ZEBET). Dark viability was measured in parallel under the same conditions without irradiation. The viability of cells treated with compounds 5, 7 and 10 for 24 h without irradiation was similar to untreated cells, thus concluding that the compounds have no cytotoxicity up to 10 µM concentrations (Figure 4).

[3] = system: irradiated G361 cells; test: Photodynamic treatment (LED 414 nm) with MTT cell viability assay; assay type: cell-based; conditions: Homo sapiens, G-361, light or radiation study
Experimental: G361 cell line (human skin melanoma) was cultivated in DMEM medium supplemented with 10% fetal bovine serum, 1% penicillin/streptomycin, 1% glutamine, at 37 °C in 5% CO2 atmosphere. Viability of cells was determined using the MTT (Sigma-Aldrich) assay in 96-well microplates (10^4 per well in 100 µl of DMEM). The test compounds were added 24 h post plating and the cells were then incubated for additional 24 h. Cells were then exposed to an irradiation in 100 µl of PBS with 5 mM glucose and incubated for further 24 h. After the experiment, 50 µl of MTT (dissolved in PBS) was added and cells were incubated for another 3 h at 37 °C and in 5 % CO2. The media was then carefully replaced with 100 µl of DMSO in order to solubilize the violet formazan crystals. The measurement of absorbance was carried out on reader Synergy HT at 570 nm and 690 nm. The cell viability of the samples was determined as a percentage of the control cell viability (100 × average of test group / average of control group). The data for the determination of EC50 was calculated using the Phototox v. 2.0 software (ZEBET). Dark viability was measured in parallel under the same conditions without irradiation. An in-house constructed LED based light source specifically designed for the irradiation of 96-well microplates and Petri dishes (Tomecka et al., CZ302829B6, 2006) was used; a maximal wavelength emission of 414 nm and light intensity set to 20 mW/cm^2. For photodynamic treatments, cultivation medium was aspirated and replaced by PBS supplemented with 5 mM glucose. Immediately after irradiation, PBS was removed and full DMEM was added to cells. The cultivation lasted for subsequent 24 h. All assays were performed in triplicates and repeated independently three times. In an initial experiment, G361 cells were treated with the tested compounds for 24 h and then exposed to light (LED source, 414 nm) with a total irradiation dose of 10 J/cm^2. Viability of cells was quantified 24 h after the irradiation by an MTT assay (Table 3). Subsequently, G361 cells treated with compound 7 were also exposed to total irradiation doses of 1 and 50 J/cm^2. Table 3. EC50 of compounds 5, 7 and 10 in irradiated G361 cells (10 J/cm2).

[4] = system: G361 cell line; test: Reactive oxygen species (ROS) production, CM-H2DCFDA fluorescence; assay type: cell-based, human; conditions: G361, 0.052 µM, irradiation of 50 J/cm2 (414 nm)
Experimental: ROS was quantified using a CM-H2DCFDA (Invitrogen) solution (10 µl 10 µM DCF + 1 ml PBS) and a microplate reader Synergy HT. Right after adding 50 µl of DCF solution, 25 min incubation and irradiation, the ROS production was determined by measuring fluorescence using Synergy HT reader. An excitation wavelength of 485 nm and an emission wavelength of 548 nm were used.

[5] = system: G361 cells; test: Mitochondrial membrane potential change assay (JC-1); assay type: cell-based, human; conditions: G361, 0.052 µM, irradiated with 50 J/cm^2 (414 nm)
Experimental: Mitochondrial membrane potential change was monitored by the fluorescent dye JC-1. After 24 h incubation the cells were washed by PBS. Then 50 µl of a JC-1 solution (Sigma-Aldrich) was added (5 mg/ml in DMSO + 5 ml PBS) and cells were incubated at 37 °C and in 5 % CO2 for 20 min. After incubation the cells were washed by PBS twice. The results were expressed as the ratio of the green fluorescence (excitation wavelength - 485 nm, emission wavelength - 548 nm) and red fluorescence (excitation wavelength - 520 nm, emission wavelength - 590 nm) retained within the cells. JC fluorescence was measured using Synergy HT reader.

[6] = system: G361 cells; test: Comet assay (DNA fragmentation); assay type: cell-based, human; conditions: irradiated with 50 J/cm2
Experimental: Microscope slides were pre-coated with 1% HMP agarose (Qbiogene) dissolved in distilled water. After stiffening, two 1% agarose spots (dissolved in PBS) were made and overlayed with a cover slip. Treated or control G361 cells were trypsinized, rinsed by DMEM and then the mixture of 25 µl of cell suspension and 85 µl of 1% LMP agarose (dissolved in PBS) was added to the microscope slides with agarose gel. The microscope slides were immersed in a lysis buffer with 1% Triton X for 1 h and then placed in an electrophoretic tank and dipped into a cool electrophoresis solution for 40 min. After the electrophoresis (20 V, 350 mA, 20 min), the microscopic slides were immersed in a neutralisation buffer (10 min twice). The samples were then stained by SYBR Green (Invitrogen) for 15 min and scored by the SW Comet Score (TriTek Corp.). In order to determine the extent of DNA fragmentation caused by a combination of compound 7 and irradiation in G361 cells, comet assay was performed (Figure 4). The cells were divided into four groups according to degree of DNA fragmentation: 0-10%, 11-30%, 31-50% and 50-100%. […] Table 5. Degree of DNA fragmentation in G361 cell line treated by compound 7 at 0.052 µM and irradiated with 50 J/cm2.

[7] = system: histone H2A.X phosphorylation at Ser-139; test: DNA damage by immunoblotting of histone H2A.X phosphorylation; assay type: cell-based, human; conditions: G361, treated 24 h
Experimental: After the treatment, cell lysates were prepared in RIPA buffer, then proteins were separated on SDS-polyacrylamide gels and electroblotted onto nitrocellulose membranes. After blocking, overnight incubation with specific primary antibodies and incubation with peroxidase-conjugated secondary antibodies, the peroxidase activity was detected with SuperSignal West Pico reagents (Thermo Scientific) using a CCD camera LAS-4000 (Fujifilm). All primary antibodies were diluted in PBS containing 5% powdered milk and 0.1% Tween 20. The specific antibodies were purchased from Cell Signaling (anti-PARP, clone 46D11; HRP-linked rabbit anti-mouse immunoglobulin), Sigma Aldrich (anti-α-tubulin, clone DM1A), Millipore (anti-phospho-histone H2A.X, Ser139, clone JBW301). To independently confirm DNA damage caused by a combination of compound 7 and irradiation in G361 cells, phosphorylation of histone H2A.X at Ser-139 (yH2A.X) was evaluated using immunoblotting analysis (Figure 5). Increased level of yH2A.X is a well-accepted marker of DNA damage. The cells were treated with different doses of compound 7 for 24 h, then either kept in dark or exposed to light with a total irradiation dose of 1, 10 or 50 J/cm^2 and cultivated for subsequent 24 h. After this period, the cells were harvested and analyzed by immunoblotting.

[8] = system: Escherichia coli (DH5alpha); test: Antimicrobial activity with light irradiation, colony counting; assay type: cell-based; conditions: in combination with blue light irradiation (414 nm), Fig. 6
Experimental: Antimicrobial activity was tested on Escherichia coli (DH5alpha).The cells were grown aerobically at 37°C in LB medium. When reached exponential growth phase, the suspension was diluted with fresh LB and supplemented with test compounds or with diluted DMSO (as a control) and seeded on Petri dishes with agar media. After 5 hours the plates were exposed to light from a light emitting diode source, a maximal wavelength emission of 414 nm, light intensity set to 20 mW/cm^2 (M. Tomecka, et al., CZ302829B6, 2006). The control samples for dark toxicity were not exposed to the light. After irradiation the plates were in the dark incubator at 37 °C for 16 h and then the colonies were counted.

[9] = 24 h, G361, 24 h treatment, 414 nm, total irradiation dose 10 J/cm2, MTT 24 h after irradiation

| Compound | λabs [1] [nm] | λem [1] [nm] | cytotoxicity without irradiation (dark viability) [2] [µM] | EC50 [3, 9] [nM] | EC50 ([3]; G361, 414 nm, total irradiation dose 1 J/cm^2) [nM] | EC50 ([3]; G361, 414 nm, total irradiation dose 50 J/cm^2) [nM] | ROS production increase in comparison to control cells [4] [%] | JC-1 polymer aggregation within mitochondria (mitochondrial membrane potential) [5] | DNA fragmentation in comparison with untreated control cells ([6]; G361, 0.052 µM) | relative number of cells, degree of DNA fragmentation 0-10 % ([6]; G361, treated, 0.052 µM) [%] | relative number of cells, degree of DNA fragmentation 11-30 % ([6]; G361, treated, 0.052 µM) [%] | relative number of cells, degree of DNA fragmentation 31-50 % ([6]; G361, treated, 0.052 µM) [%] | relative number of cells, degree of DNA fragmentation 51-100 % ([6]; G361, treated, 0.052 µM) [%] | H2A.X phosphorylation (yH2A.X) ([7]; irradiation dose 1 J/cm2 (414 nm)) | H2A.X phosphorylation (yH2A.X) ([7]; irradiation dose 10 J/cm2 (414 nm)) | H2A.X phosphorylation (yH2A.X) ([7]; irradiation dose 50 J/cm2 (414 nm)) | H2A.X phosphorylation (yH2A.X) ([7]; kept in dark) | antibacterial effect [8] |
| --- | --- | --- | --- | --- | --- | --- | --- | --- | --- | --- | --- | --- | --- | --- | --- | --- | --- | --- |
| CCCCCCOc1nn(-c2ccccc2)cc1/C=C/C=C/c1ccc2c(c1)C(C)(C)C(c1ccccc1)=N2 [Compound 10, 5-{(1E, 3E)-4-[3-(Hexyloxy)-1-phenyl-1H-pyrazol-4-yl]buta-1,3-dien-1-yl}-3,3-dimethyl-2-phenyl-3H-indole] | 380 | 525 | > 10 | 2060 ± 82 | – | – | – | – | – | – | – | – | – | – | – | – | – | – |
| CCCCCCOc1nn(-c2ccccc2)cc1C#Cc1ccc2c(c1)C(C)(C)C(c1ccccc1)=N2 [Compound 5, 5-{[3-(Hexyloxy)-1-phenyl-1H-pyrazol-4-yl]ethynyl}-3,3-dimethyl-2-phenyl-3H-indole] | 355 | 475 | > 10 | 6213 ± 38 | – | – | – | – | – | – | – | – | – | – | – | – | – | – |
| CCCCCCOc1nn(-c2ccccc2)cc1/C=C/c1ccc2c(c1)C(C)(C)C(c1ccccc1)=N2 [Compound 7, 5-{(E)-2-[3-(Hexyloxy)-1-phenyl-1H-pyrazol-4-yl]ethenyl}-3,3-dimethyl-2-phenyl-3H-indole] | 380 | 495 | > 10 | 262 ± 2 | 3080 ± 155 | 52 | 30 | decrease in JC-1 polymer aggregation within mitochondria | significant DNA fragmentation | 62.83 ± 2.72 | 30.73 ± 4.07 | 4.84 ± 0.65 | 1.6 ± 1.59 | faint yH2A.X signal | massive increase of yH2A.X | massive increase of yH2A.X | did not show any H2A.X phosphorylation | antibacterial effect |

— patent EP4107145B1, “PYRAZOLE-INDOLE CONJUGATES FOR PHOTODYNAMIC TREATMENT OF CANCER AND BACTERIAL INFECTIONS” (Univerzita Palackého v Olomouci, priority 2020, dated 2021)
